In patent US20050245537A1, “Use of compounds having ccr antagonism” (priority 2002, published 2005):

Tested on: Mouse Skin Graft Rejection Model
Assay: Mouse skin graft rejection model
Format: in vivo
From the text: Effects of a Compound with Respect to a Mouse Skin Graft Rejection Model

Cc1ccc(-c2ccc3c(c2)C=C(C(=O)Nc2ccc(C[N+](C)(C)C4CCOCC4)cc2)CCC3)cc1.[Cl-] [N,N-dimethyl-N-(4-[[[2-(4-methylphenyl)-6,7-dihydro-5H-benzocyclohepten-8-yl]carbonyl]amino]benzyl]tetrahydro-2H-pyran-4-ammonium chloride]
graft rejection suppression effect (10 mg/kg subdermally once a day, P<0.05 vs. control, log-rank test): significant
number of days of skin graft life (donor mouse B6-CH-2^bm12 abdominal skin grafted onto recipient mouse (B6/129), 10 mg/kg subdermally once a day from the day of grafting, n=7, control group 13.0±2.8 days (n=6)): 19.6 ± 4.4 days
